This note sets out measurements from patent US11236047B2 (ASTEX THERAPEUTICS LIMITED, priority 2017, dated 2022).

For one test, the target named is MDM2-p53 interaction (Homo sapiens (Human), UniProt Q00987). Particulars: for inhibition at 0.001 µM: read-out: MDM2 % inhibition @0.0010; for inhibition at 0.1 µM: read-out: MDM2 % inhibition @0.10.
The test system of the next test is SJSA-1 cells. The experiment in a line: Protocol B: SJSA-1 CellTiter-Glo luminescent cell viability assay. For orientation: ATP-based viability assays read luminescence as a measure of living cells.
The next test has as its system SN40R2 cells. In words: Protocol B: SN40R2 CellTiter-Glo luminescent cell viability assay. Conditions: for inhibition at 10 µM: read-out: SN40R2 % inhibition at 10.
Where [1] appears, read: Homo sapiens, SJSA-1, read-out: SJSA1 IC50 (μM), Protocol B, SJSA-1.
Setting [2] is: read-out: SJSA1 IC50, Protocol B, SJSA-1.

Where two headings read alike, the source gives them in different places.

The term inhibition denotes the relative decrease from the control value, in per cent. As a reminder, the IC50 is the concentration that inhibits the measured activity by half.

Chain of MDM2-p53 interaction (Q00987 whole entry): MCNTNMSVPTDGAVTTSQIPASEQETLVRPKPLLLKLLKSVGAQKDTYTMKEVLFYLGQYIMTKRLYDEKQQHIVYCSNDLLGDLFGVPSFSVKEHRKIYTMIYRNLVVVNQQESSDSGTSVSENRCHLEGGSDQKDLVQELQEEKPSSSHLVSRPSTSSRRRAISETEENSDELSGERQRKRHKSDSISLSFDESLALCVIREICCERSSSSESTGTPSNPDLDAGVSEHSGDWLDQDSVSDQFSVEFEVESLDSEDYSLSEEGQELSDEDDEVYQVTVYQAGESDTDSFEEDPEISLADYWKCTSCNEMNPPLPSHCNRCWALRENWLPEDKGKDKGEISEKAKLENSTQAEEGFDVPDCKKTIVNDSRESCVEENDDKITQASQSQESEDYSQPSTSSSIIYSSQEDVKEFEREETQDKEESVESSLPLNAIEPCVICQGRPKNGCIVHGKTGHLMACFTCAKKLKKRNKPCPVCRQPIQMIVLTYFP
Experimental for MDM2-p53 interaction: MDM2-053 Interaction Using a 96-Well Plate Binding Assay (ELISA)
The ELISA assay was performed in streptavidin coated plates which were preincubated with 200 μl per well of 1 μg ml^−1 biotinylated IP3 peptide. The plates were ready to use for MDM2 binding after washing the plate with PBS.
The bound HRP activity was measured by enhanced chemiluminesence (ECL™, Amersham Biosciences) using the oxidation of the diacylhydrazide substrate, luminol, to generate a quantifiable light signal. The percentage of MDM2 inhibition at a given concentration is calculated as the [1−(RLU detected in the compound treated sample−RLU negative DMSO control)÷(RLU of DMSO positive and negative controls)]×100 or as the (RLU detected in the compound treated sample÷RLU of DMSO controls)×100. The IC50 was calculated using a plot of % MDM2 inhibition vs concentration and is the average of two or three independent experiments.

Consider `CO[C@]1(c2ccc(Cl)cc2)c2ccc(C(C)(O)C(=O)NCCN(C)C)cc2C(=O)N1Cc1ccc(Cl)cn1` (single isomer, unassigned) [Example 149], for which, on MDM2-p53 interaction (at 1.0 μM), the “MDM2 % at stated concentration” value is on record as 53%@1.0.

For the compound `CO[C@]1(c2ccc(Cl)cc2)c2ccc(C(C)(O)C(=O)NCCN(C)C)cc2C(=O)N1Cc1ccc(Cl)cn1` (single isomer, unassigned) [Example 150], on MDM2-p53 interaction (at 0.10 μM), the “MDM2 % at stated concentration” value was 49%@0.10. Regarding `CC(=O)N1CCC(C(C)(O)c2cc(F)c3c(c2)C(=O)N(Cc2ccc(Cl)cn2)[C@@]3(OCC2(C#N)CC2)c2ccc(Cl)cc2)CC1` (single isomer, unassigned) [Example 301], at MDM2-p53 interaction, the “MDM2 % at stated concentration” value was 75%@0.0010. The same measure, in the same setting: as for `Cn1cc(C(C)(O)c2cc(F)c3c(c2)C(=O)N(Cc2ccc(Cl)c[n+]2[O-])[C@@]3(OCC2(CO)CC2)c2ccc(Cl)cc2)cn1` (single isomer, unassigned) [Example 407], the figure is 62%@0.0010.

Turning to `CO[C@]1(c2ccc(Cl)cc2)c2c(F)cc(C(C)(O)c3cnn(C4CN(C(=O)OC(C)(C)C)C4)c3)cc2C(=O)N1Cc1ccc(Cl)cn1` (single isomer, unassigned) [Example 458], at MDM2-p53 interaction (read-out: MDM2 % inhibition @0.010), the inhibition at 0.01 µM was 44%. `CCC(O)(c1cc(F)c2c(c1)C(=O)N(Cc1ccc(C#N)cn1)[C@@]2(OC[C@@H](C)O)c1ccc(Cl)cc1)C1(F)CCOCC1` (single isomer, unassigned) [Example 497]: the inhibition at 0.001 µM at MDM2-p53 interaction was 83%. Same read-out and setting: as for `CCC(O)(c1cc(F)c2c(c1)C(=O)N(Cc1ccc(C#N)cn1)[C@@]2(OCCO)c1ccc(Cl)cc1)C1(F)CCOCC1` (single isomer, unassigned) [Example 499], the figure is 68%. Consider `CC(C)(O)c1cc(F)c2c(c1)C(=O)N(Cc1ccc(Cl)cn1)[C@@]2(OCC1(CNCCO)CC1)c1ccc(Cl)cc1` [Example 326, (3R)-3-(4-chlorophenyl)-2-[(5-chloropyridin-2-yl)methyl]-4-fluoro-3-[(1-{[(2-hydroxyethyl)amino]methyl}cyclopropyl)methoxy]-6-(2-hydroxypropan-2-yl)-2,3-dihydro-1H-isoindol-1-one], for which, at MDM2-p53 interaction (at 0.030 μM), the “MDM2 % at stated concentration” value was found to be 50%@0.030. On the same count and under the same terms, to `CC(C)(O)c1cc(F)c2c(c1)C(=O)N([C@H](c1ccc(Cl)cn1)C(O)CO)[C@@]2(OCC1(O)CC1)c1ccc(Cl)cc1` (stereo partly drawn) [Example 331, (3R)-3-(4-Chlorophenyl)-2-[(1R)-1-(5-chloropyridin-2-yl)-2,3-dihydroxypropyl]-4-fluoro-3-[(1-hydroxycyclopropyl)methoxy]-6-(2-hydroxypropan-2-yl)-2,3-dihydro-1H-isoindol-1-one] belongs 49%@0.030. Consider `Cn1cc(C(O)(c2cc(F)c3c(c2)C(=O)N(Cc2ccc(C#N)cn2)[C@@]3(O[C@H]2CCOC2)c2ccc(Cl)cc2)C(F)(F)F)cn1` (stereo partly drawn) [Example 371, 6-{[(1R)-1-(4-chlorophenyl)-7-fluoro-3-oxo-1-[(3S)-oxolan-3-yloxy]-5-[2,2,2-trifluoro-1-hydroxy-1-(1-methyl-1H-pyrazol-4-yl)ethyl]-2,3-dihydro-1H-isoindol-2-yl]methyl}pyridine-3-carbonitrile], for which, on MDM2-p53 interaction (read-out: MDM2 % inhibition @0.030), the inhibition at 0.03 µM is 43%. Regarding `CCC(O)(c1cc(F)c2c(c1)C(=O)N(Cc1ccc(C#N)cn1)[C@@]2(OCCOC)c1ccc(Cl)cc1)c1cn(C)cn1` (stereo partly drawn) [Example 429, 6-{[(1R)-1-(4-chlorophenyl)-7-fluoro-5-[1-hydroxy-1-(1-methyl-1H-imidazol-4-yl)propyl]-1-(2-methoxyethoxy)-3-oxo-2,3-dihydro-1H-isoindol-2-yl]methyl}pyridine-3-carbonitrile], the inhibition at 0.1 µM on MDM2-p53 interaction is 65%. Turning to `CO[C@]1(c2ccc(Cl)cc2)c2c(F)cc(C(C)(O)c3cnn(C4CN(C(=O)OC(C)(C)C)C4)c3)cc2C(=O)N1Cc1ccc(Cl)cn1` (stereo partly drawn) [Example 457, tert-Butyl 3-(4-{1-[(1R)-1-(4-chlorophenyl)-2-[(5-chloropyridin-2-yl)methyl]-7-fluoro-1-methoxy-3-oxo-2,3-dihydro-1H-isoindol-5-yl]-1-hydroxyethyl}-1H-pyrazol-1-yl)azetidine-1-carboxylate], the inhibition at 0.3 µM at MDM2-p53 interaction (read-out: MDM2 % inhibition @0.30) is 53%.

Consider `CCC(O)(c1cc(F)c2c(c1)C(=O)N(Cc1ncc(C#N)cn1)[C@@]2(OCC1(C#N)CC1)c1ccc(Cl)cc1)c1cn(C)cn1` (stereo partly drawn) [Example 463, 2-{[(1R)-1-(4-chlorophenyl)-1-[(1-cyanocyclopropyl)methoxy]-7-fluoro-5-[1-hydroxy-1-(1-methyl-1H-imidazol-4-yl)propyl]-3-oxo-2,3-dihydro-1H-isoindol-2-yl]methyl}pyrimidine-5-carbonitrile], for which, on MDM2-p53 interaction, the inhibition at 0.1 µM turned out to be 73%. With `CCC(O)(c1cc(F)c2c(c1)C(=O)N(Cc1ncc(Cl)cn1)[C@@]2(O[C@H]1C[C@@H](O)C1)c1ccc(Cl)cc1)c1cn(C)cn1` (stereo partly drawn) [Example 464, (3R)-3-(4-chlorophenyl)-2-[(5-chloropyrimidin-2-yl)methyl]-4-fluoro-6-[1-hydroxy-1-(1-methyl-1H-imidazol-4-yl)propyl]-3-[cis-3-hydroxycyclobutoxy]-2,3-dihydro-1H-isoindol-1-one], the IC50 in the test on SJSA-1 cells (setting [1]) was 0.18 µM. For the same compound, the inhibition at 10 µM in the test on SN40R2 cells amounted to 46%. For `Cn1cnc(C(C)(O)c2cc(F)c3c(c2)C(=O)N(Cc2ncc(C#N)cn2)[C@@]3(OCC2(F)COC2)c2ccc(Cl)cc2)c1` (stereo partly drawn) [Example 468, 2-{[(1R)-1-(4-chlorophenyl)-7-fluoro-1-[(3-fluorooxetan-3-yl)methoxy]-5-[1-hydroxy-1-(1-methyl-1H-imidazol-4-yl)ethyl]-3-oxo-2,3-dihydro-1H-isoindol-2-yl]methyl}pyrimidine-5-carbonitrile] the same measures were 0.48 µM and 2%. On to `CCC(O)(c1cc(F)c2c(c1)C(=O)N(Cc1ncc(C#N)cn1)[C@@]2(OCC1(F)COC1)c1ccc(Cl)cc1)c1cn(C)cn1` (stereo partly drawn) [Example 470, 2-{[(1R)-1-(4-chlorophenyl)-7-fluoro-1-[(3-fluorooxetan-3-yl)methoxy]-5-[1-hydroxy-1-(1-methyl-1H-imidazol-4-yl)propyl]-3-oxo-2,3-dihydro-1H-isoindol-2-yl]methyl}pyrimidine-5-carbonitrile], for which the IC50 in the test on SJSA-1 cells (setting [2]) stood at 0.1 µM. Also, the inhibition at 10 µM in the test with SN40R2 cells turned out to be 3%. Consider `CCCC(O)(c1cc(F)c2c(c1)C(=O)N(Cc1ccc(C#N)cn1)[C@@]2(O[C@H]1CCOC1)c1ccc(Cl)cc1)c1cn(C)cn1` (stereo partly drawn) [Example 473, 6-{[(1R)-1-(4-chlorophenyl)-7-fluoro-5-[1-hydroxy-1-(1-methyl-1H-imidazol-4-yl)butyl]-3-oxo-1-[(3S)-oxolan-3-yloxy]-2,3-dihydro-1H-isoindol-2-yl]methyl}pyridine-3-carbonitrile], for which the inhibition at 0.1 µM at MDM2-p53 interaction came out at 44%. In the case of `CCC(O)(c1cc(F)c2c(c1)C(=O)N(Cc1ncc(Cl)cc1O)[C@@]2(O[C@H]1C[C@@H](O)C1)c1ccc(Cl)cc1)c1cn(C)cn1` (stereo partly drawn) [Example 488, (3R)-2-[(5-chloro-3-hydroxypyridin-2-yl)methyl]-3-(4-chlorophenyl)-4-fluoro-6-[1-hydroxy-1-(1-methyl-1H-imidazol-4-yl)propyl]-3-[cis-3-hydroxycyclobutoxy]-2,3-dihydro-1H-isoindol-1-one], the inhibition at 0.1 µM at MDM2-p53 interaction is 56%.

Consider `CCC(O)(c1cc(F)c2c(c1)C(=O)N(Cc1ncc(C#N)cn1)[C@@]2(O[C@H]1CCOC1)c1ccc(Cl)cc1)c1ccn(C)n1` (stereo partly drawn) [Example 490, 2-{[(1R)-1-(4-chlorophenyl)-7-fluoro-5-[1-hydroxy-1-(1-methyl-1H-pyrazol-3-yl)propyl]-3-oxo-1-[(3S)-oxolan-3-yloxy]-2,3-dihydro-1H-isoindol-2-yl]methyl}pyrimidine-5-carbonitrile], for which the half-maximal inhibitory concentration (IC50) with SJSA-1 cells (setting [2]) was 0.27 µM. In addition, in the test on SN40R2 cells, the inhibition at 10 µM came to 0%.

Turning to `CC[C@@](O)(c1cc(F)c2c(c1)C(=O)N(Cc1ncc(Cl)cn1)[C@@]2(OCCO)c1ccc(Cl)cc1)C1(F)CCOCC1` [Example 501, (3R)-3-(4-chlorophenyl)-2-[(5-chloropyrimidin-2-yl)methyl]-4-fluoro-6-[(1R)-1-(4-fluorooxan-4-yl)-1-hydroxypropyl]-3-(2-hydroxyethoxy)-2,3-dihydro-1H-isoindol-1-one], the half-maximal inhibitory concentration (IC50) in the test on SJSA-1 cells (setting [1]) worked out at 0.022 µM. The inhibition at 3 µM in the test on SN40R2 cells (read-out: SN40R2 % inhibition at 3) worked out at 8%. Consider `CC[C@@](O)(c1cc(F)c2c(c1)C(=O)N(Cc1ncc(C#N)cn1)[C@@]2(OCCO)c1ccc(Cl)cc1)C1(F)CCOCC1` [Example 509, 2-{[(1R)-1-(4-chlorophenyl)-7-fluoro-5-[(1R)-1-(4-fluorooxan-4-yl)-1-hydroxypropyl]-1-(2-hydroxyethoxy)-3-oxo-2,3-dihydro-1H-isoindol-2-yl]methyl}pyrimidine-5-carbonitrile], for which, in the test on SJSA-1 cells (setting [1]), the IC50 was 0.042 µM. Moreover, in the test on SN40R2 cells, the inhibition at 10 µM came to 6%. For `CCC(O)(c1cc(F)c2c(c1)C(=O)N(Cc1ncc(C#N)cn1)[C@@]2(OC[C@@H](C)O)c1ccc(Cl)cc1)[C@H]1CC[C@H](O)CC1` (stereo partly drawn) [Example 512, 2-{[(1R)-1-(4-chlorophenyl)-7-fluoro-5-{1-hydroxy-1-[trans-4-hydroxycyclohexyl]propyl}-1-[(2R)-2-hydroxypropoxy]-3-oxo-2,3-dihydro-1H-isoindol-2-yl]methyl}pyrimidine-5-carbonitrile] the same measures were 0.025 µM and 5%. For `CC(O)(c1cc(F)c2c(c1)C(=O)N(Cc1ncc(Cl)cn1)[C@@]2(OCCO)c1ccc(Cl)cc1)C1(F)CCOCC1` (stereo partly drawn) [Example 578, (3R)-3-(4-chlorophenyl)-2-[(5-chloropyrimidin-2-yl)methyl]-4-fluoro-6-[1-(4-fluorooxan-4-yl)-1-hydroxyethyl]-3-(2-hydroxyethoxy)-2,3-dihydro-1H-isoindol-1-one] the same measures were 0.12 µM and 4%.
